In test [1] the test system is Staphylococcus aureus, quinolone-resistant strains (Quotient Bioresearch catalogue). The experiment in a line: MIC against pathogens resistant against quinolones (Table 5). Particulars: strain GP82, Staphylococcus aureus levofloxacin-resistant clinical isolate, amino acid changes GrlA, GrlB & GyrA.
Test [2] concerns Acinetobacter baumannii (12 strains). The experiment in a line: MIC range, broader panel of Quotient Bioresearch strains (Table 4). The test is classed as cell-based.

SMILES strings stand for the structures. Read-outs that look alike come from different tables or passages of the source.

Experimental findings from US8962842B2, “2-pyridone antimicrobial compositions” (priority 2010, dated 2015) are described below.

For orientation: MIC means the lowest concentration that inhibits growth of the organism.

Take `Cc1c(-c2ccc3[nH]ncc3c2)ccn2c(=O)c(C(=O)[O-])cc(C3CC3)c12.[K+]` [Example 23 K salt, potassium 1-cyclopropyl-8-(1H-indazol-5-yl)-9-methyl-4-oxo-4H-quinolizine-3-carboxylate]: the minimal inhibitory concentration (MIC) in test [1] was at most 0.015 µg/mL; in test [2] (read-out: MIC Range High, Acinetobacter baumannii (12 strains)) it was 8 µg/mL; in test [2] (read-out: MIC Range Low, Acinetobacter baumannii (12 strains)), 0.03 µg/mL. Besides, in test [2] (read-out: MIC Range Median, Acinetobacter baumannii (12 strains)), the MIC50 worked out at 3 µg/mL.
